Several values for one entry are separate records, joined by “and”; a condition that tells them apart may be missing. Equal values may be shown once.
How the values were obtained:
[1] = tested on: total NF-κB p65; assay: NanoBiT cell-based immunoassay, total p65 in MCF-7 cells; parameters: species or system human; settings: for level of p65: MCF-7 cells, TNFα 50 ng per ml 10 min, IKK16 10 µM 1 h; for Total p65, Average: background subtracted, average of replicates; for Total p65, Raw data / Total p65, Subtract reagent background: single replicates
Method: (§1) Prior to NanoBiT Cell-Based Immunoassay, 50,000 cells were seeded in 160 µl of complete growth media per well of a 96-well plate and incubated overnight. The cells were checked under microscope and it was determined that 50,000 cells per well in 96-well plate is under 90% confluency for all cells tested. If necessary, the cell culture media were replaced with serum-free media after the cells were stably adherent on the plate and incubated overnight. To treat cells with activators or inhibitors, medium was changed to 30 µl of medium containing inhibitors. If activation of a specific pathway is needed, the cells were stimulated with 10 µl of medium containing activators. To lyse the cells, 10 µl of lysis buffer containing 0.1% digitonin diluted in 1X immunoassay buffer with protease and phosphatase inhibitors was added and the plates were mixed vigorously for 20 min. Then, 50 µl of an antibody mix containing two primary antibodies against the target protein and NanoBiT detecting antibodies (0.3 µl each per well), diluted in 1X immunoassay buffer was added to the lysates. The plates were incubated at 23 °C for 90 min, followed by the addition of 25 µl of Nano-Glo® reagent consisting of Nano-Glo® Luciferase Assay Substrate mixed with 1X immunoassay buffer. Luminescence was measured using a plate-reading luminometer.
(§2) Single dose or dose response inhibitor treatments were performed prior to activation of the pathways as follows. For IκBα, the cells were treated in 30 µl medium with IKK16 or MG132 for 60 min before the addition of 10 µl of DMEM containing appropriate concentration of TNFα. To measure phosphorylation of AKT or STAT3, the corresponding NanoBiT immunoassays were developed with MCF-7 or A431 cells, respectively, according the same scheme used to develop the IκBα assay using the primary antibodies for AKT and STAT3 described in the reagents section. For the AKT assay, MCF-7 cells were incubated overnight in phenol-red free DMEM medium (Gibco #21063-029) without serum. Treatment with LY294002 was performed in 30 µl medium and cells were incubated for 60 min before the addition of 1 µM Insulin. To measure STAT3 phosphorylation, A431 cells were incubated overnight in DMEM medium without serum. […] After addition of the stimulators, the cells were incubated for additional times as follows. IκBα phosphorylation and degradation analyses required both time courses and single time points as described in figures. […] The NanoBiT immunoassay protocol was followed as described above.
(§3) All 96-well assay plates were read using a GloMax® 96 Microplate Luminometer from Promega. The instrument was set to 0.5 s integration time. In order to obtain net change of signal, the reagent background values (signal from the well containing all reagent except primary antibodies) were subtracted from the sample values. To plot and analyze the data, Microsoft Excel and GraphPad Prism® Software were used. IC50 values were determined by using a nonlinear regression fit to a sigmoidal dose response (variable slope).

[2] = tested on: total IκBα; assay: NanoBiT cell-based immunoassay, total IκBα in human breast tumor epithelial cells; settings: for IkB degradation (% compared to no IKK16), Average / IkB degradation (% compared to no IKK16) / Non-Treated/Treated / Raw data / Subtract reagent background: Breast tumor cells, TNF; for IkB degradation (% compared to no IKK16), Average: average of replicates; for IkB degradation (% compared to no IKK16) / Non-Treated/Treated / Raw data / Subtract reagent background: single replicates; for Total IkB Average / Total IkB Raw data / Total IkB Subtract reagent background: Breast Tumor Cells; for Total IkB Average: background subtracted; for Total IkB Raw data / Total IkB Subtract reagent background: listed as TNF
Method: All cell lines used are from ATCC. […] Human Primary Mammary Epithelial Cells (#H-6035), Human Breast Tumor Epithelial Cells (#HC-6035), Complete Human Epithelial Cell Medium (#H6621), and Gelatin-Based Coating Solution (#H6950) were purchased from Cell Biologics. The cells were cultured according to the manufacturer’s procedure. All cells were grown at 37 °C in a 5% CO2 humidified incubator and passaged before reaching 80% cell confluency. Prior to each experiment, cells were counted by combining 30 µl of cell suspension with 30 µl of trypan blue. After gentle pipetting up and down to mix the cells and the dye, the cell number was determined using Bio-Rad TC 20 cell counter.
as §1, §2, §3

[3] = tested on: NF-κB p65 Phospho-Ser536; assay: NanoBiT cell-based immunoassay, phosphorylated p65 in MCF-7 cells; parameters: species or system human; settings: for P-p65, Average: background subtracted, average of replicates; for P-p65, Raw data / P-p65, Subtract reagent background: single replicates
Method: as §1, §2, §3

O=C(c1ccc(Nc2nccc(-c3cc4ccccc4s3)n2)cc1)N1CCC(N2CCCC2)CC1 [IKK16]
level of p65 [1]: not affected | Total p65, Average ([1]; TNF + Ikk16): 726760 | Total p65, Raw data ([1]; TNF + Ikk16): 756500 and 718200 and 763300 | Total p65, Subtract reagent background ([1]; TNF + Ikk16): 744060 and 737260 and 698960 | Total p65, Average ([1]; substance alone): 788717 | Total p65, Raw data ([1]; substance alone): 811900 and 763300 and 846900 | Total p65, Subtract reagent background ([1]; substance alone): 828250 and 793250 and 744650 | IkB degradation (% compared to no IKK16), Average ([2]; IKK16 0.000762939 uM): 97.6% | IkB degradation (% compared to no IKK16) ([2]; IKK16 0.000762939 uM): 92% and 104% and 97% | Non-Treated/Treated ([2]; IKK16 0.000762939 uM): 3.423 and 4.061 and 3.878 | Raw data ([2]; IKK16 0.000762939 uM): 10940 and 10560 and 10750 | Subtract reagent background ([2]; IKK16 0.000762939 uM): 5493 and 5113 and 5303 | IkB degradation (% compared to no IKK16), Average ([2]; IKK16 0.00305176 uM): 98.3% | IkB degradation (% compared to no IKK16) ([2]; IKK16 0.00305176 uM): 97% and 96% and 102% | Non-Treated/Treated ([2]; IKK16 0.00305176 uM): 3.600 and 3.739 and 4.102 | Raw data ([2]; IKK16 0.00305176 uM): 10670 and 11000 and 10460 | Subtract reagent background ([2]; IKK16 0.00305176 uM): 5223 and 5553 and 5013 | IkB degradation (% compared to no IKK16), Average ([2]; IKK16 0.012207 uM): 95.1% | IkB degradation (% compared to no IKK16) ([2]; IKK16 0.012207 uM): 98% and 99% and 88% | Non-Treated/Treated ([2]; IKK16 0.012207 uM): 3.656 and 3.857 and 3.531 | Raw data ([2]; IKK16 0.012207 uM): 10590 and 10830 and 11270 | Subtract reagent background ([2]; IKK16 0.012207 uM): 5143 and 5383 and 5823 | IkB degradation (% compared to no IKK16), Average ([2]; IKK16 0.0488281 uM): 99.5% | IkB degradation (% compared to no IKK16) ([2]; IKK16 0.0488281 uM): 95% and 97% and 106% | Non-Treated/Treated ([2]; IKK16 0.0488281 uM): 3.552 and 3.780 and 4.255 | Raw data ([2]; IKK16 0.0488281 uM): 10740 and 10940 and 10280 | Subtract reagent background ([2]; IKK16 0.0488281 uM): 5293 and 5493 and 4833 | IkB degradation (% compared to no IKK16), Average ([2]; IKK16 0.195312 uM): 94.6% | IkB degradation (% compared to no IKK16) ([2]; IKK16 0.195312 uM): 95% and 102% and 87% | Non-Treated/Treated ([2]; IKK16 0.195312 uM): 3.532 and 3.953 and 3.507 | Raw data ([2]; IKK16 0.195312 uM): 10770 and 10700 and 11310 | Subtract reagent background ([2]; IKK16 0.195312 uM): 5323 and 5253 and 5863 | IkB degradation (% compared to no IKK16), Average ([2]; IKK16 0.78125 uM): 86.9% | IkB degradation (% compared to no IKK16) ([2]; IKK16 0.78125 uM): 77% and 92% and 91% | Non-Treated/Treated ([2]; IKK16 0.78125 uM): 2.883 and 3.584 and 3.657 | Raw data ([2]; IKK16 0.78125 uM): 11970 and 11240 and 11070 | Subtract reagent background ([2]; IKK16 0.78125 uM): 6523 and 5793 and 5623 | IkB degradation (% compared to no IKK16), Average ([2]; IKK16 3.125 uM): 49.5% | IkB degradation (% compared to no IKK16) ([2]; IKK16 3.125 uM): 48% and 52% and 49% | Non-Treated/Treated ([2]; IKK16 3.125 uM): 1.799 and 2.002 and 1.952 | Raw data ([2]; IKK16 3.125 uM): 15900 and 15820 and 15980 | Subtract reagent background ([2]; IKK16 3.125 uM): 10453 and 10373 and 10533 | IC50 ([2]; human primary breast tumor epithelial cells, pretreated 1 h, then TNFα 50 ng per ml 30 min, read-out: IC50, inhibition of TNFα induced degradation of IκBα): 1.82 µM | TNFα-increased phosphorylation of p65 on serine 536 ([3]; MCF-7 cells, 10 µM 1 h, TNFα 50 ng per ml 10 min): inhibited | P-p65, Average ([3]; TNF + Ikk16): 4467 | P-p65, Raw data ([3]; TNF + Ikk16): 22920 and 23320 and 23680 | P-p65, Subtract reagent background ([3]; TNF + Ikk16): 4080 and 4480 and 4840 | P-p65, Average ([3]; substance alone): 3920 | P-p65, Raw data ([3]; substance alone): 22430 and 21780 and 21730 | P-p65, Subtract reagent background ([3]; substance alone): 4370 and 3720 and 3670

TNFα
level of p65 [1]: not affected | Total p65, Average ([1]; substance alone): 887990 | Total p65, Raw data ([1]; substance alone, listed as TNF): 913100 and 869100 and 947500 | Total p65, Subtract reagent background ([1]; substance alone, listed as TNF): 925590 and 891190 and 847190 | Total IkB Average ([2]; TNF 2 min): 21090 | Total IkB Raw data ([2]; TNF 2 min): 27000 and 28670 and 28950 | Total IkB Subtract reagent background ([2]; TNF 2 min): 21553 and 21833 and 19883 | Total IkB Average ([2]; TNF 4 min): 18310 | Total IkB Raw data ([2]; TNF 4 min): 25000 and 25490 and 25790 | Total IkB Subtract reagent background ([2]; TNF 4 min): 18373 and 18673 and 17883 | Total IkB Average ([2]; TNF 6 min): 13990 | Total IkB Raw data ([2]; TNF 6 min): 22120 and 20820 and 20380 | Total IkB Subtract reagent background ([2]; TNF 6 min): 13703 and 13263 and 15003 | Total IkB Average ([2]; TNF 8 min): 8950 | Total IkB Raw data ([2]; TNF 8 min): 16890 and 15660 and 15650 | Total IkB Subtract reagent background ([2]; TNF 8 min): 8543 and 8533 and 9773 | Total IkB Average ([2]; TNF 10 min): 6003 | Total IkB Raw data ([2]; TNF 10 min): 13590 and 12910 and 12860 | Total IkB Subtract reagent background ([2]; TNF 10 min): 5793 and 5743 and 6473 | Total IkB Average ([2]; TNF 12 min): 3767 | Total IkB Raw data ([2]; TNF 12 min): 11390 and 10770 and 10490 | Total IkB Subtract reagent background ([2]; TNF 12 min): 3653 and 3373 and 4273 | Total IkB Average ([2]; TNF 15 min): 2118 | Total IkB Raw data ([2]; TNF 15 min): 9632 and 9015 and 9057 | Total IkB Subtract reagent background ([2]; TNF 15 min): 1898 and 1940 and 2515 | Total IkB Average ([2]; TNF 30 min): 1696 | Total IkB Raw data ([2]; TNF 30 min): 8893 and 8691 and 8853 | Total IkB Subtract reagent background ([2]; TNF 30 min): 1574 and 1736 and 1776 | Total IkB Average ([2]; TNF 45 min): 4853 | Total IkB Raw data ([2]; TNF 45 min): 11970 and 11880 and 12060 | Total IkB Subtract reagent background ([2]; TNF 45 min): 4763 and 4943 and 4853 | Total IkB Average ([2]; TNF 60 min): 8867 | Total IkB Raw data ([2]; TNF 60 min): 15500 and 15850 and 16600 | Total IkB Subtract reagent background ([2]; TNF 60 min): 8733 and 9483 and 8383 | P-p65, Average ([3]; substance alone): 154463 | P-p65, Raw data ([3]; substance alone, listed as TNF): 167400 and 177100 and 183300 | P-p65, Subtract reagent background ([3]; substance alone, listed as TNF): 145930 and 155630 and 161830

Reference: paper PMC6941952, “A homogeneous bioluminescent immunoassay to probe cellular signaling pathway regulation” (Communications Biology, 2020)
